Test [1] has as its target Xanthine oxidoreductase (XOR) (Homo sapiens, UniProt P47989). Particulars: reference [15]; cited from earlier work.
The target of test [2] is PknGΔ74/TPR (Mycobacterium tuberculosis, UniProt P9WI73). Type of test: biochemical.
Test [3] concerns the target T1, rabbit muscle GAPDH (Oryctolagus cuniculus, UniProt P46406).
T1 construct: rabbit muscle GAPDH as model protein; from tissue; host or cells: rabbit muscle
Put plainly: Reversibility of GAPDH inhibition by DTT (positive control). The test is classed as biochemical. The conditions noted are these: OA-NO2-inhibited GAPDH. The procedure: FIG. 11A: PknG was inhibited by incubation with OA-NO2 (50 μM) in 70 mM ammonium bicarbonate, pH 8.0 at 25° C. for 10 min, as previously. Kinase activity of PknG inhibited by OA-NO2 was measured (PknG+OA-NO2). Subsequently, nitroalkylated samples were treated with DTT (42 mM) or GSH (24 mM) for 15 min at 25° C. and kinase activity was re-measured (PknG+OA-NO2+RSH). Activity recovery was expressed as a ratio between [activity of PknG+OA-NO2+RSH]/[activity PknG+OA-NO2] where 1 means no activity recovery after thiol-containing agent treatment. GAPDH was used as a positive control: after DTT treatment 90% of the initial activity was recovered representing a 12 fold increase in the enzyme activity after the RSH treatment. […] Three independent experiments were performed FIG. 11B: MALDI-TOF mass spectrum of peptides generated by tryptic digestion of PknG. Upper panel: untreated PknG, middle panel: PknG exposed to OA-NO2 and lower panel: idem middle panel+42 mM DTT. In each panel the native or nitroalkylated form of the peptide with the sequence 122-154 that includes the Rbx-Cys 128 and 131, are shown. […]
We have previously reported that nitrated fatty acids are capable to inhibit GAPDH activity by modification of nucleophilic amino acid residues in a thiol-reversible manner. […] PknG control activity was measured in the presence of the thiol-containing reagents. […]

T1 sequence (P46406 whole entry): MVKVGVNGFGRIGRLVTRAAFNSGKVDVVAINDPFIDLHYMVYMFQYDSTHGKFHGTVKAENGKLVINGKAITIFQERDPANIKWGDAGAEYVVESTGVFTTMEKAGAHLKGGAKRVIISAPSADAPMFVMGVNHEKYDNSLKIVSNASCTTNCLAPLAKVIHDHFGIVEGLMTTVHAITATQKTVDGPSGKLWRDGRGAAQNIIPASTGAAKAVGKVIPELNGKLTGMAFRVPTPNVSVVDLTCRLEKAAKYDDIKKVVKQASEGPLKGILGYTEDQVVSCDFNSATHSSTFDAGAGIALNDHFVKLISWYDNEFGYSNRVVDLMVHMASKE
Sequence of Xanthine oxidoreductase (XOR) (P47989 whole entry): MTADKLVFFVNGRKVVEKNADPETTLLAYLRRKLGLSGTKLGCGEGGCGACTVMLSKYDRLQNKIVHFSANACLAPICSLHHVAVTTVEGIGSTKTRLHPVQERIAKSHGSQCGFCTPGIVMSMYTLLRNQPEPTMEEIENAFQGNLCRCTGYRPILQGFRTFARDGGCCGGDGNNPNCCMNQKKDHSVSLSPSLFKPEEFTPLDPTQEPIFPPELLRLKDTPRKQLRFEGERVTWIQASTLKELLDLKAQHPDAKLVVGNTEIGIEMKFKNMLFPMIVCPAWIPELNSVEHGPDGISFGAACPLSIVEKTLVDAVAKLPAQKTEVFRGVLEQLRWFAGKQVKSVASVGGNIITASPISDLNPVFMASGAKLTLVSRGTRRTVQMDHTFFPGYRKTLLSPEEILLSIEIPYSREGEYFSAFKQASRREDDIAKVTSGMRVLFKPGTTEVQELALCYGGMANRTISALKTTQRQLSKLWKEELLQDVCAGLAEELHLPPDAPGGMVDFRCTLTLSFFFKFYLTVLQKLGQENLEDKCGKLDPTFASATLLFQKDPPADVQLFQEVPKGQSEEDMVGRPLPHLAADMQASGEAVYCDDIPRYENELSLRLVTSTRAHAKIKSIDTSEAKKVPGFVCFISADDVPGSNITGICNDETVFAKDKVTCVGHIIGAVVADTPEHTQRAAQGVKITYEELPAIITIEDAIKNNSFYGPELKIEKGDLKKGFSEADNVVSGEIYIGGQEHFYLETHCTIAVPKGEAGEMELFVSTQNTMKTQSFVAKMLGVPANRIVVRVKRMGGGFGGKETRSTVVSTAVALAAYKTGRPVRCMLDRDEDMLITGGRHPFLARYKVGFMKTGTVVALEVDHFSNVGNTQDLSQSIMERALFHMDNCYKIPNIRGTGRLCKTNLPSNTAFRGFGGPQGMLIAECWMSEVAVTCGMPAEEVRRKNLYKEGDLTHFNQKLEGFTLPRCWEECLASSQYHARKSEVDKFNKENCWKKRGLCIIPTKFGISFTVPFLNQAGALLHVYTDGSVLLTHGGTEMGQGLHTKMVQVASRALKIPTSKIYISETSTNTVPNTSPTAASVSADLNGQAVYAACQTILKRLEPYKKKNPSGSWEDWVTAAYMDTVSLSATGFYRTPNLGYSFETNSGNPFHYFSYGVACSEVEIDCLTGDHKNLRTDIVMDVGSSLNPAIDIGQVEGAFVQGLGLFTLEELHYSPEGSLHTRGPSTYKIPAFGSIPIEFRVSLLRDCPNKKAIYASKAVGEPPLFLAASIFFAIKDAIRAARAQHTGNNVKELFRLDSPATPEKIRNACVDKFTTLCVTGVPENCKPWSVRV
Sequence of PknGΔ74/TPR (P9WI73 whole entry, looked up, stated change not applied): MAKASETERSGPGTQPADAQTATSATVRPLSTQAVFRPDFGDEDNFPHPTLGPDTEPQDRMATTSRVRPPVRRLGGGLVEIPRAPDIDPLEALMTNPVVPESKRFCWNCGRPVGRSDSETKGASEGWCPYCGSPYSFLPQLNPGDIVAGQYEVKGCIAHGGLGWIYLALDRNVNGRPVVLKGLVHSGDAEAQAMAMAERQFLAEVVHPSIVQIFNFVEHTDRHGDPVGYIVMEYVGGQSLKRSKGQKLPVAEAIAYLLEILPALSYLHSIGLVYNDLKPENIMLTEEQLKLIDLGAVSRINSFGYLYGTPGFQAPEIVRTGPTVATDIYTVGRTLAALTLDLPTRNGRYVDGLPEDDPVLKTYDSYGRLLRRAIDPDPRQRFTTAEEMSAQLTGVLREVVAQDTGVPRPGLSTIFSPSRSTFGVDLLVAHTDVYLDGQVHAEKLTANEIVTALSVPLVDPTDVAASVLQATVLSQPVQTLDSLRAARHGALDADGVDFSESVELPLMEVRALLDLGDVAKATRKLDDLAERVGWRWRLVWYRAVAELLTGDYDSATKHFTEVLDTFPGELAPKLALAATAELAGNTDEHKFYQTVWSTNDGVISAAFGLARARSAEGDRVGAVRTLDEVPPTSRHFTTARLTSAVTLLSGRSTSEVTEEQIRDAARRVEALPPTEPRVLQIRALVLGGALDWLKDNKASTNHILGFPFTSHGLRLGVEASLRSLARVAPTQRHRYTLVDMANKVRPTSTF

As for “9- and 10-nitro-octadeca-9-cis-enoic acid [OA-NO2]”, the “XOR inhibition, reversibility” value in test [1] is “not reversed by thiol reagents”. The “enzyme inhibition of PknGΔ74/TPR” value in test [2] was “fully inhibited”. In addition, in test [3], the “increase in GAPDH activity after RSH treatment” value came out at 12 fold and the “initial GAPDH activity recovered after DTT treatment” value turned out to be 90%.

(Values after US20150051283A1, “COMPOSITION AND METHOD FOR INHIBITION OF PKNG FROM MYCOBACTERIUM TUBERCULOSIS” (priority 2013, published 2015).)
